Assay results as given in publication PMC5432998, “Recombinant expression of thermostable processive MtEG5 endoglucanase and its synergism with MtLPMO from Myceliophthora thermophila during the hydrolysis of lignocellulosic substrates” (Biotechnology for Biofuels, 2017).

Target: T1, MtEG5A (Thermothelomyces thermophilus, UniProt G2Q5D8)
T1 construct: gene MYCTH_86753; mature GH5 with CBM1; ORF 389 aa, signal peptide removed (printed MKSSILASVFATGAVA); C-terminal myc/His tag; Pichia pastoris X33
T1 sequence (G2Q5D8 17-389): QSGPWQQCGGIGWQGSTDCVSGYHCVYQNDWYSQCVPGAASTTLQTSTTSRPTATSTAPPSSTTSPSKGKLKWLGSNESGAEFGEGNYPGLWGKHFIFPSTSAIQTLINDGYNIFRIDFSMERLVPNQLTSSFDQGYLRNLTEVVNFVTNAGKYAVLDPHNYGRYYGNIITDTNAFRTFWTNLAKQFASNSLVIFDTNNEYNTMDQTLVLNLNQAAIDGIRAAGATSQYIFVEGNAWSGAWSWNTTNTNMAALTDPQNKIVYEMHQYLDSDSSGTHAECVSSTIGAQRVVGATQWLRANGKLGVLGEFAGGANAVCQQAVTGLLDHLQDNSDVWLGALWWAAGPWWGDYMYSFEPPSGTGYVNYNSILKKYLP
Experiment: HPAEC-PAD hydrolysis time course
Format: biochemical
Details: 40 uM substrate; citrate-phosphate pH 5.0; 50 °C

Row | SMILES | HPAEC-PAD hydrolysis time course
1 | OC[C@H]1O[C@@H](O[C@H]2[C@H](O)[C@@H](O)[C@H](O[C@H]3[C@H](O)[C@@H](O)[C@H](O[C@H]4[C@H](O)[C@@H](O)[C@H](O[C@H]5[C@H](O)[C@@H](O)[C@H](O[C@H]6[C@H](O)[C@@H](O)C(O)O[C@@H]6CO)O[C@@H]5CO)O[C@@H]4CO)O[C@@H]3CO)O[C@@H]2CO)[C@H](O)[C@@H](O)[C@@H]1O (some centres unmarked) [G6, cellohexaose] | The comparison of catalytic efficiency (k cat /K m) values of MtEG5A against the oligosaccharides
2 | OC[C@H]1O[C@@H](O[C@H]2[C@H](O)[C@@H](O)[C@H](O[C@H]3[C@H](O)[C@@H](O)[C@H](O[C@H]4[C@H](O)[C@@H](O)[C@H](O[C@H]5[C@H](O)[C@@H](O)C(O)O[C@@H]5CO)O[C@@H]4CO)O[C@@H]3CO)O[C@@H]2CO)[C@H](O)[C@@H](O)[C@@H]1O (some centres unmarked) [G5, cellopentaose] | the enzyme catalyzed the hydrolysis of G5, the products were G2 and G3
